Test results: article PMC12734371, “Synthesis, Anti-Tumour, and Antibacterial Activities of Monocarbonyl Curcumin Analogues of Piperidones” (International Journal of Molecular Sciences, 2025)

Legend:
[1] = tested on: A549 cells; assay: CCK-8 growth inhibition (dose and time action curves); format: cell-based, human; settings: different concentrations, 4-72 h
Description: A549 cells in the logarithmic growth phase and in a good growth state were collected. After routine digestion and centrifugation, the cells were diluted with DMEM low-glucose complete medium, suspended in a single cell state, and inoculated in 96-well plates. Each well was inoculated with 100 μL cell suspension containing 5 × 10^3 cells. The 96-well plate was shaken to disperse the cells evenly at the bottom of the cell orifice plate, and the cells were cultured in the cell incubator for 24 h. The old medium was discarded, complete medium containing different concentrations of liquid medicine was added, and the culture continued in the cell culture incubator. At 4, 6, 12, 24, 48, and 72 h, the old medium was discarded and 100 μL of medium containing 10% CCK-8 was added. The medium was placed in the cell incubator and continued to incubate for 2 h. The OD value was measured at 450 nm with an enzyme calibration and the inhibition rate of different compounds at different concentrations was calculated. GraphPad Prism 8.0 was used to plot the inhibition rate of cell growth at different concentrations of the five major compounds. The drug duration curves were plotted with time as the X-axis and inhibition rate as the Y-axis.

[2] = tested on: A549 cells; assay: MTT assay, inhibition of tumour cell growth; format: cell-based, human; settings: 24 h, mean ± s
Description: (§1) The tumour cell suspension in logarithmic growth phase, containing about 5 × 10^3 cells, was taken and seeded onto a 96-well plate and gently shaken to disperse the cells evenly at the bottom of the plate. The cells were incubated in a constant temperature (37 °C) incubator for 24 h. The old medium was discarded, and 100 μL of the prepared working solution of piperidinone monocarbonyl curcumin analogues at different concentrations was added, and the cells were incubated in a constant temperature incubator for 24 h. Blank medium wells, blank cell wells, and 0.9% DMSO (highest content) wells were set up, with 6 multi-well and 3 multi-plates for each concentration. The discarded old medium was absorbed, and 100 μL of 10% 5 mg/mL MTT working solution was added to each well (operated away from light) and placed in a cell incubator for further incubation for 4 h. The old medium was discarded, and 100 μL of DMSO was added to each well and shaken in an air shaker at 100 RPM for 10 min. The absorbance of the OD value was measured at 490 nm by a multifunctional microplate analyzer. According to Formula (1), the inhibition rates of different piperidones monocarbonyl curcumin analograms on 4 tumour cells were calculated, and IC50 was calculated by GraphPad Prism 8.0:Inhibition rate (%) = (OD blank cell group − OD administration group)/OD blank cell group(1)

[3] = tested on: HepG2 cells; assay: MTT assay, inhibition of tumour cell growth; format: cell-based, human; settings: 24 h, mean ± s, n = 3
Description: as §1

[4] = tested on: MCF-7 cells; assay: MTT assay, inhibition of tumour cell growth; format: cell-based, human; settings: 24 h, mean ± s, n = 3
Description: as §1

[5] = tested on: Hela cells; assay: MTT assay, inhibition of tumour cell growth; format: cell-based, human; settings: 24 h, mean ± s, n = 3
Description: as §1

[6] = tested on: A549 cells; assay: Cell wound scratch assay (migration); format: cell-based, human; settings: 6 h; high, medium, and low concentrations
Description: A549 cells in logarithmic phase were digested with 0.25% trypsin and blown to single cell suspension with a dropper. The cell density was adjusted to 5 × 10^5 cells/mL. The cells were inoculated on 6-well plates, 2 mL per well, and cultured in a cell incubator at 37 °C, 5% CO2, and saturated humidity for 24 h until the gaps were basically fused. A 10 μL micro pipette tip was used to scratch vertically in a 6-well plate. After washing with PBS solution 3 times, the drug-containing medium was added, 2 mL per well, and three wells were set in each group. The culture plates were placed in a 5% CO2 incubator at 37 °C for 6 h and 24 h and observed and photographed with an inverted fluorescence microscope. The images were obtained by NIS Elements Viewer 4.2.0, and the scratch area and width were calculated. The cell migration rate was calculated by Formula (2):[Cell migration rate (%) = (0 h scratch area − scratch area at different times)/0 h scratch area × 100%](2)

[7] = tested on: L02 cells; assay: MTT assay, toxicity to human normal liver cells; format: cell-based; settings: 24 h, mean ± s, n = 3
Description: The cells were passaged to the fourth generation of L02 cells, and the cell suspension containing about 5 × 10^3 cells was added to each well of the 96-well plate and cultured in a cell culture incubator for 24 h. The old medium was discarded, and different concentrations of liquid medicine (6 porous and 3 plates for each concentration) were added and incubated for 24 h. The old medium was discarded, 10% of 5 mg/mL MTT working solution was added in the dark, and the cells were incubated in a cell incubator for 4 h. The old medium was discarded, 100 μL DMSO was added to each well, and 100 RPM was oscillated on an air shaker for 10 min. The OD value was measured at 490 nm with a multifunctional microplate reader. According to the OD value, the inhibition rate of different piperidone monocarbonyl curcumin analogues on L02 cells was calculated according to Formula (1), and IC50 was calculated by Graph Pad Prism 8.0.

[8] = tested on: ERK (extracellular regulated protein kinases); assay: Western blot, ERK level in A549 cells; format: cell-based, human; settings: 10, 5, 2.5 μmol/L, 24 h
Description: (§2) A549 cells in logarithmic growth phase were seeded in 6-well plates at 1 × 10^6 cells/mL per well. The cells were cultured overnight in an incubator. Different concentrations of drug-containing medium of 2,5-2Cl, 2Br-5Cl, 2-Cl, 2-F, benzaldehyde ([…]), curcumin (20 μmol/L), and cisplatin (30 μmol/L) were added, and the blank control […] The RIPA cell lysis buffer containing protease inhibitors was added to the Petri dish to collect the proteins of each experimental group, and the supernatant was collected as a protein sample after ultrasonic centrifugation. Protein quantification was performed by the BCA method. A total of 20 μg protein was separated by 10% SDS-PAGE, and then the protein was transferred to a PVDF membrane. The membrane was blocked with 5% skim milk for 1 h, and the corresponding primary antibody was incubated at 4 °C overnight. After washing the membrane three times with TBST, the bands were incubated with the corresponding secondary antibodies at room temperature for 1 h. After cleaning the membrane with TBST 3 times, the darkroom was developed with ECL luminescence. Using GAPDH as an internal reference, the protein bands were analyzed by ImageJ 1.8.0.

[9] = tested on: AKT (protein kinase B); assay: Western blot, AKT level in A549 cells; format: cell-based, human; settings: 10, 5, 2.5 μmol/L, 24 h
Description: as §2

[10] = tested on: A549 cells; assay: Flow cytometry apoptosis (Annexin V/PI); format: cell-based, human; settings: 24 h; 5, 2.5, 1.25 μmol/L
Description: The A549 cells in logarithmic growth phase were inoculated in 6-well plates at 1 × 10^6 cells. After resting in the incubator for 24 h, the cells were treated with different concentrations of drugs. The blank control group was added with the medium with the highest concentration of DMSO. After 24 h of culture, cells were collected, washed with PBS, transferred to a flow tube, and resuspended with 100 μL of 1 × Annexin V conjugate. Add 4 μL YF4/88-Annexin N and 5 μL PI working solution. The cells were incubated in the dark at room temperature for 10 min, transferred to a flow cytometer tube, added with 200 μL of 1 × Annexin V conjugate, and immediately detected by flow cytometry.

[11] = tested on: A549 cells; assay: Cell morphology by inverted microscope; format: cell-based, human; settings: 5 μmol/L, 24 h
Description: The cells were inoculated in a 6-well plate, and about 1 × 10^6 A549 cells in the logarithmic growth phase were inoculated in each well. After the cells were cultured in a constant temperature incubator for 24 h, the old medium was discarded, and five kinds of piperidone monocarbonyl curcumin analogue solution (5, 10, and 20 μmol/L), curcumin (10, 20, and 40 μmol/L), and 0.9% DMSO were added as the blank control group for 24 h, and then the cell morphology was observed by inverted microscope (200×).

Compound | Inhibition of A549 cell growth (CCK-8) [1] | IC50 ([2]; n = 3) [µM] | IC50 ([2]; n = 3, listed as benzaldehyde) [µM] | IC50 [3] [µM] | IC50 [4] [µM] | IC50 [5] [µM] | Cell migration rate vs blank control (0.9% DMSO) [6] | IC50 [7] [µM] | ERK protein level vs control group [8] | Expression level of AKT protein vs control group [9] | Apoptosis-inducing effect on A549 cells [10] | Cell morphology [11]
3,5-Dibenzylidene-4-piperidone [Benzaldehyde] | weak at low concentrations | 4.66 ± 2.39 | < 5 | 10.3 ± 1.88 | 5.88 ± 1.44 | 12.4 ± 2.91 | no statistical difference | 52.4 ± 1.89 |  |  |  | 
O=C1C(=Cc2cc(Cl)ccc2Cl)CNCC1=Cc1cc(Cl)ccc1Cl [2,5-2Cl] |  | 2.87 ± 2.09 |  | 9.66 ± 1.09 | 4.72 ± 1.48 | 6.62 ± 2.1 | no statistical difference | 48.6 ± 3.59 | significantly lower | most obvious | strongest | most of the cells became round and loose
